Earlier results, collected in article doi:10.1101/2023.04.08.536135v1 (bioRxiv, 2023).

Tested on: IDE

For “bradykinin (RPPGFSPFR; Bradykinin; UniProt P01042 381-389, looked up)”, the “rate of degradation by IDE relative to that of insulin” value is given as “at least 20 fold”.
